Experiment [1] relates to formalin-induced nociceptive behaviors (flinches, licking). Put plainly: Formalin Paw Test. The format is in vivo. The following applies: Rattus norvegicus, po, male rats, dose at which control values are inhibited by 50%. How it is done: Formalin Paw Test (Ref: Carlton S M and Zhou S: Attenuation of formalin-induced nociceptive behaviors following local peripheral injection of gabapeptin. Pain 76, 201-207, 1998). Male rats (Chbb: THOM) weighing 250-300 grams are used. 20 μl of a 2% formaldehyde solution is injected into the plantar region of the right hind paw. Immediately after, the number of flinches (twitches of the affected hind paw) and the length of time spent licking the affected paw are recorded over a period of one hour. After 5 minutes in each case the values are grouped together into epochs. From the epoch values, time-effect curves for flinches and licking are plotted. Typically, two phases of formalin effect are observed (flinches, licking). A first phase lasting 0-10 minutes and a second phase lasting 10-60 minutes. Between the two phases the number of flinches and duration of licking fall towards 0 (interphase). From the time-effect curves the areas under the curve for the first phase and for the second phase are determined. Usually, 5 animals are used for each control, placebo and dose of substance. The results of the doses of substance are compared with those of the controls and ED50 values are calculated. The ED50 is the dose at which the control values are inhibited by 50%.

The subject of experiment [2] is neuropathic pain (tactile allodynia, thermal hyperalgesia). Put plainly: test models for neuropathic pain in the rat. The format is in vivo. To be noted: neuropathic pain models in the rat (Bennett and Xie; Seltzer et al.). An excerpt: (1) Bennett G J and Xie Y-K. A peripheral mononeuropathy in rat that produces disorders of pain sensation like those seen in man. Pain 33, 87-107, […]. (2) Seltzer, Z., Dubner R. and Shir, Y. A novel behavioral model of neuropathic pain disorder. Pain 43, 205-218, 1990.

Experiment [3] concerns Tetrodotoxin-sensitive currents. Format: cell-based, rat. The following applies: read-out: IC50 tetrodotoxin-sensitive currents; neurone cultures from the posterior root ganglions of adult rats.

Each structure is given as a SMILES string. Structures can show the parent of a compound that is named as a salt.

In experiment [1], `Nc1c(Br)cc(Br)cc1CN[C@H]1CC[C@H](O)CC1` [ambroxol hydrochloride] registered an ED50 of 70 mg/kg.

As for `Nc1c(Br)cc(Br)cc1CN[C@H]1CC[C@H](O)CC1` [ambroxol, trans-4-(2-amino-3,5-dibrombenzylamino)-cyclohexanol], in experiment [2], the tactile allodynia result is on record as “reduced the tactile allodynia” and the thermal hyperalgesia result is “reduced”. In addition, the IC50 in experiment [3] was above 100 µM.

For the origin of these results see patent US20060199867A1, “Ambroxol for the treatment of chronic pain” (Boehringer Ingelheim Pharma GmbH, priority 2002, published 2006).
